Results on 15 substances are retold here after patent US7175981B2, “Method of diagnosing stage or aggressiveness of breast and prostate cancer based on levels of fatty acid binding proteins” (The United States of America as represented by the …, priority 1998, dated 2007).

Entries after “also recorded” stand apart in the source; their conditions may differ. Where two headings read alike, the source gives them in different places.

Data set [1] deals with E-FABP. In words: RT-PCR of E-FABP expression in MCF-7 cells grown with drug. It counts as cell-based, human. The conditions noted are these: 1 uM, 48 hr. How it is done:
(§1) FIGS. 17a and 17b are graphs showing MCF-7 cells grown in the presence of 1 uM HPA-Na for 48 hr and RNA isolated for FABP measurement.
(§2) For RT-PCR, equal amounts of RNA were used for the reverse transcriptase reaction to make cDNA. The cDNA was then used for the PCR reaction using specific primers for the different fatty acid binding proteins. Also, PCR was performed for genes such as Actin whose level stays generally the same in all the samples. The PCR products were resolved on agarose gel and the picture under UV was saved in the computer as a TIFF file. Using the NIH Image Program 1.6–1, gel optical units were digitized and obtained for each band observed. The values of the FABP PCR fragments were therefore normalized to the Actin values for each sample. In the figures, the data is represented in Optical Density Units versus the FABP and cell type from Breast and Prostate tissues.
(§3) The RNA was isolated using the Trizol method and RT-PCR analysis of the proteins was performed by using primers specific for each FABP. Equal amount of RNA was used for RT-PCR and PCR master mix was used to avoid any handling errors. […] The method of quantitation of PCR product was as follows: for internal quantitation control actin primers was used, all the gels were scanned in a gel scanner and digitized using the NIH-Image program for quantitation. […]

The test system of data set [2] is LNCAP prostate cells. In words: Growth of prostate cancer cells (Cytofluor). The class given is cell-based, human. The conditions noted are these: prostate (and breast) cancer cells.
The subject of data set [3] is A-FABP. The data set is described as follows: RT-PCR of A-FABP expression in MCF-7 cells grown with drug. It counts as cell-based, human. The conditions noted are these: 1 uM, 48 hr. How it is done:
as §1, §2, §3

In data set [4] the test system is E-FABP. In words: RT-PCR of E-FABP expression in LNCAP cells grown with drug. The conditions noted are these: 1 uM. It counts as cell-based, human. How it is done:
(§4) FIG. 18 is a graph showing LNCAP cells grown in the presence of 1 uM HPA-Na for 48 hr. At that time, cells were harvested, RNA prepared by the method of TRIZOL, and levels of various FABPs were measured by RT-PCR.
as §2
(§5) The RNA was isolated using the Trizol method and RT-PCR analysis of the proteins was performed by using primers specific for each FABP. […] The method of quantitation of PCR product was as follows: for internal quantitation control actin primers was used, all the gels were scanned in a gel scanner and digitized using the NIH-Image program for quantitation. […]

For data set [5], the system named is brain-FABP. In words: RT-PCR of brain-FABP expression in MCF-7 cells grown with drug. The class given is cell-based, human. The conditions noted are these: 1 uM, 48 hr. How it is done:
as §1, §2, §3

The nature of data set [6]: Toxicity in mice (body weight, necropsy). It counts as in vivo. The conditions noted are these: subcutaneously, weekly for 10 weeks. How it is done:
We have identified a class of heteropolyanions that have anticancer activity. This class consists of metal ion derivatives of polyoxotungstate, hereinafter referred to as HPA. These heteropolyanions (HPA) are synthesized by methods outlined in Heteropoly and Isopoly Oxometalates, Michael Thor Pope, Springer Verlag, Berlin, Germany 1983. They are water soluble and stable at room temperature and are effective at very low concentrations (1 μM) in cell cultures. […] Oral and intramuscular administration were also tested. Drugs were dissolved in aqueous solutions for administration. Preferred HPA drugs are HPA-Na and HPA-Sm.

In data set [7] the test system is multi-drug resistant MCF-7 ADR human breast cancer cells. The data set is described as follows: MCF-7 proliferation assay, multi-drug resistant cells (cytofluor). The conditions noted are these: ADR MCF-7 breast cancer cells. It counts as cell-based. From the text:
(§6) Tables 1 and 2 show the concentrations required for IC50 inhibition in cultures of wild type and multi-drug resistant MCF-7 human breast cancer cells, respectively. These tables show polyoxotungstates used on MCF-7 proliferation assay.

In data set [8] the test system is A-FABP. The data set is described as follows: RT-PCR of A-FABP expression in LNCAP cells grown with drug. The class given is cell-based, human. The conditions noted are these: 1 uM, 48 hr, listed as HPA-Na. How it is done: as §4, §2, §5
Data set [9] deals with wild type MCF-7 human breast cancer cells. The data set is described as follows: MCF-7 proliferation assay, wild type cells (cytofluor). It counts as cell-based. The conditions noted are these: WT MCF-7 breast cancer cells.
Text: as §6

The test system of data set [10] is I-FABP. The data set is described as follows: RT-PCR of I-FABP expression in LNCAP cells grown with drug. It counts as cell-based, human. The conditions noted are these: in the presence of drug, listed as HPA-Na. How it is done:
as §4, §2, §5

Setting [11] is: experiment 2, read-out: IC50 (Exp. #2).
The mark [12] stands for this setting: experiment 1, read-out: IC50 (Exp. 1).

Broadly, the IC50 is the midpoint of a concentration-inhibition curve. Regarding K12.5Na1.5[NaP5W30O110] · nH2O, the “change in level of E-FABP” value in data set [1] is “dramatically increased”; in data set [4], “altered in a similar manner”. The “effect on proliferation of cancer cells” value in data set [2] is given as “blocked”. Further, the “change in level of A-FABP” value is reported as “dramatically increased” in data set [3] and “increased the levels of A-FABP in LNCAP to a level similar to the normal values; also recorded: increasing A-FABP; also recorded: markedly elevated” in data set [8]. The “change in level of brain-FABP” value in data set [5] is on record as “decreased significantly”. Moreover, in data set [6], the “toxicity in mice (weights, necropsy)” value is recorded as “no indications of toxicity was observed”. In addition, the IC50 in data set [7] (setting [11]) was determined as 2.1 µM; in data set [9] (setting [12]) it was 3.8 µM; in data set [9] (setting [11]) it was 3.5 µM. The “change in level of I-FABP” value in data set [10] was “decreasing I-FABP; also recorded: decrease”.
Consider K12[BiP5W30O110] · nH2O, for which the half-inhibitory concentration (IC50) was found to be 3 µM in data set [7] (setting [12]), 2.5 µM in data set [7] (setting [11]) and 5 µM in data set [9] (setting [11]).
In the case of K12[CeP5W30O110] · nH2O, the IC50 in data set [7] (setting [12]) came to 3.8 µM; in [7] (setting [11]), 3 µM; in data set [9] (setting [12]) it was 4.3 µM; in data set [9] (setting [11]), 5 µM.
Turning to K12[DyP5W30O110] · nH2O, the concentration for half-maximal inhibition (IC50) in [7] (setting [12]) was found to be 3.8 µM; in data set [7] (setting [11]), 2.3 µM; in data set [9] (setting [12]), 4.3 µM; in data set [9] (setting [11]), 5 µM.
The like results for K12[ErP5W30O110] · nH2O were, in that order, 4 µM, 1 µM, 4.3 µM and 6 µM.
On to K12[EuP5W30O110] · nH2O, for which the values for the IC50 in data set [7] (setting [12]), in data set [7] (setting [11]) and in data set [9] (setting [11]) were 0.25 µM, 3.8 µM and 4.5 µM, respectively.
As for K12[GdP5W30O110] · nH2O, the IC50 in [7] (setting [12]) is 4.3 µM; in [7] (setting [11]), 4.6 µM; in data set [9] (setting [12]) it was 2 µM; in data set [9] (setting [11]), 8 µM.
In the same order, the values of K12[HoP5W30O110] · nH2O are 0.25 µM, 4 µM, 3 µM and 4.5 µM.
The like results for K12[LuP5W30O110] · nH2O were, in that order, 4.5 µM, 5.5 µM, 1 µM and 5 µM.
In the same order, the values of K12[SmP5W30O110] · nH2O are 3.8 µM, 4.1 µM, 0.5 µM and 2.5 µM.
Turning to K12[TbP5W30O110] · nH2O, the IC50 amounted to 3.5 µM in [7] (setting [12]), 4.9 µM in data set [7] (setting [11]), 1 µM in data set [9] (setting [12]) and 8 µM in data set [9] (setting [11]).
Take K12[TmP5W30O110] · nH2O: the IC50 came out at 4 µM in data set [7] (setting [12]), 6 µM in data set [7] (setting [11]), 0.25 µM in data set [9] (setting [12]) and 10 µM in data set [9] (setting [11]).
Regarding K12[UP5W30O110] · nH2O, the IC50 in [7] (setting [12]) stood at 5.8 µM; in data set [7] (setting [11]), 4.8 µM; in data set [9] (setting [12]) it was 1 µM; in data set [9] (setting [11]) it was 10 µM.
In the same order, the values of K12[YbP5W30O110] · nH2O are 5 µM, 6.3 µM, 3.8 µM and 3.7 µM.
In the same order, the values of K13[CaP5W30O110] · nH2O are 3.8 µM, 6.8 µM, 4.5 µM and 5 µM.
